The text below walks through data of paper PMC6525171, “15-deoxy-Δ^12,14-Prostaglandin J2 inhibits human soluble epoxide hydrolase by a dual orthosteric and allosteric mechanism” (Communications Biology, 2019).

The structures appear in SMILES notation. Where a chain is given by its changes, count along the chain named.

Common to all, as to type: biochemical
In assay [1] the target is T1, human soluble epoxide hydrolase (hsEH CTD) (Homo sapiens, UniProt P34913, C423S/C522S).
T1 construct: gene EPHX2; C-terminal domain, T230-M555
T1 sequence (P34913 230-555 C423S/C522S): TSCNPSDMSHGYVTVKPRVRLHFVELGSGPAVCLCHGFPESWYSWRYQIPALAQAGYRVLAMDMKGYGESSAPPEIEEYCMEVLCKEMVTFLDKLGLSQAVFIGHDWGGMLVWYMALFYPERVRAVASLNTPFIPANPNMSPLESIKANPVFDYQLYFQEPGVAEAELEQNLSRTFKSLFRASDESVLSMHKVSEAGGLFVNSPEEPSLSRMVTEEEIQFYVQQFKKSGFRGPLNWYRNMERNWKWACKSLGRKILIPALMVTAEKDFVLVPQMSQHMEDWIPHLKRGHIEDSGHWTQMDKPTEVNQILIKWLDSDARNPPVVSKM
Description: PHOME spectrofluorimetric assay, Ki by Cheng-Prusoff.

Assay [2] deals with T2, human soluble epoxide hydrolase (hsEH CTD) (Homo sapiens, UniProt P34913, C423S).
T2 construct: gene EPHX2; C-terminal domain, T230-M555
T2 sequence (P34913 230-555 C423S): T1 sequence (P34913 230-555 C423S/C522S) with S293C
Nature of the assay: HPLC, UV and CD of purified covalent adduct; PHOME activity of adduct vs apoprotein.

Assay [3] has as its target T3, human soluble epoxide hydrolase (hsEH CTD) (Homo sapiens, UniProt P34913).
T3 construct: gene EPHX2; C-terminal domain, T230-M555
T3 sequence (P34913 230-555): T1 sequence (P34913 230-555 C423S/C522S) with S194C, S293C
Nature of the assay: X-ray crystal structure ([…] Å, non-covalent complex), STD-NMR; ESI-MS and LC-MS/MS of covalent adducts; Ki from PHOME fluorescence assay.

Assay [4] concerns the target T4, human soluble epoxide hydrolase (hsEH CTD) (Homo sapiens, UniProt P34913, C522S).
T4 construct: gene EPHX2; C-terminal domain, T230-M555
T4 sequence (P34913 230-555 C522S): T1 sequence (P34913 230-555 C423S/C522S) with S194C
Description: HPLC, UV and CD of purified covalent adduct; PHOME activity of adduct vs apoprotein.

With `CCCCC/C=C/C=C1/C(=O)C=C[C@@H]1C/C=C/CCCC(=O)O` [15d-PGJ2], the Ki in assay [1] was 8.56 µM; in assay [3] it was 13 µM. The “HPLC, UV and CD of purified covalent adduct; PHOME activity of adduct vs apoprot” value is “with the single modification of C423S and C522S mutants inhibiting the enzyme to a lesser extent” in assay [2]; “with the single modification of C423S and C522S mutants inhibiting the enzyme to a lesser extent” in assay [4].
